Key:
[1] = test system: CD8-positive T cell clones (TK-f01 2H10); assay: antigen presentation by MHC class I, cross-presentation (IFN-γ ELISA); type: cell-based, human
Procedure: Further, it was confirmed that NY-ESO-1 f peptide is presented as an antigen also by MHC class I, i.e., cross-presented (FIG. 29). Specifically, in a non-serum AIM-V culture medium containing 1 μM of NY-ESO-192-100 short-chain peptide, 1 μM of NY-ESO-191-110 f peptide or 10 μg/ml of recombinant protein, dendritic cells (5×10^5 cells/ml) were cultured and pulsed with antigen, in the presence/absence of 10 μM of cytochalasin B. The cells were washed and then CD8-positive T cell clones (TK-f01 2H10) (5×10^3 cells) were cultured at 37° C. for 24 hours with the dendritic cells (5×10^3 cells) pulsed with the antigens. The amount of production of IFN-γ by antigen stimulation was measured by ELISA.

U937 = assay: intake of FAM-conjugated NY-ESO-1 f peptide into antigen-presenting cell; type: cell-based, human; details: 3 hours after the start of culturing; U937 primed with 20 ng/ml PMA
Procedure: Initially, the inventors of the present invention analyzed the point (A). Specifically, U937, which is a human monocytic leukemia strain, was subjected to priming using 20 ng/ml of PMA, and then cultured with NY-ESO-1 f peptide conjugated with FAM™. Localization of NY-ESO-1 f peptide in U937 was confirmed by observing fluorescence of FAM™ which is a fluorescent pigment.
FIG. 27 is a view illustrating that NY-ESO-1 f peptide was taken into an antigen-presenting cell (U937).

[2] = test system: NY-ESO-1-specific CD4-positive T cell clones (E-8A1); assay: antigen presentation by MHC class II (IFN-γ ELISA); type: cell-based, human
Procedure: Specifically, NY-ESO-1-specific CD4-positive T cell clones (E-8A1) were subjected to IFN-γ ELISA by use of self-EBV-B cells as antigen-presenting cells, in the presence of peptide NY-ESO-1 f peptide at a temperature condition of 4° C. or 37° C.
“E/T ratio” of the horizontal axis of FIG. 28 indicates a ratio of co-culturing between Effector (T cell) and Target (EBV-B cell).

[3] = test system: XAGE-1b-specific CD4-positive T cells (4C187-1); assay: natural epitope recognition by CD4 clone T-cells 4C187-1; type: cell-based, human; details: clone 4C187-1
[4] = test system: HLA-B*3501-restricted CD8-positive T cell clones (8C187-4); assay: IFN-γ ELISA with CD8-positive T cell clones 8C187-4; type: cell-based, human; details: clone 8C187-4
Text: FIG. 19 is a view showing that peptide 21-36 is a peptide recognized by T cell clones (8C187-4).
As shown in (c) of FIG. 19, when CD8-positive T cell clones (8C187-4) obtained from KLU 187 were stimulated with EBV-B cells expressing HLA-B*3501 as antigen-presenting cells, production of XAGE-1b-specific IFN-γ were detected.

[5] = test system: XAGE-1b-specific IgG antibody; assay: ELISA of XAGE-1b-specific IgG antibody in serums; type: binding, human
Procedure: Full-length XAGE-1b protein (carbonic acid buffer, pH 9.6) with a concentration of 1 μg/ml was immobilized overnight on a 96 well plate (NUNC) at 4° C., and then the plate was washed with a washing solution (PBS/0.1% TWEEN). To the washed plate, 5 FCS/PBS was added and the plate was subjected to blocking at 37° C. for 1 hour. After the blocking, serum diluted 100 times, 300 times, 900 times, or 2700 times was added and the resultant was caused to react at 37° C. for 2 hours. Subsequently, the resultant was washed with the washing solution, and then peroxidase-binding goat anti-human IgG antibody (diluted 5000 times) (Jackson ImmunoResearch Laboratories, Inc.) was added to the resultant and this mixture was caused to react at 37° C. for 1 hour. After the reaction, the resultant was washed with the washing solution and a substrate solution to which hydrogen peroxide was added (solution obtained by dissolving orthophenylendiamine in 0.05M citric acid buffer (pH 5.0)) was added to stain the resultant. After the staining, 6N sulfuric acid was added to stop the reaction, and absorbance (wavelength of 490 nm) thereof was measured using a microplate reader (Bio-Rad Laboratories, Inc.).
Whether or not humoral immune responses to XAGE-1b were present were examined for 200 cases of subjects suffering from non-small-cell lung cancer (including 69 cases of subjects suffering from lung adenocarcinoma in the late stage) who had consulted Kawasaki Medical School Hospital from 2005 to 2009, and for 50 cases of normal healthy subjects serving as controls.
Specifically, whether or not XAGE-1b-specific IgG antibody was present in serums sampled from lung cancer patients was examined by ELISA.
Among them, the lung cancer patients of the very-strong zone, the strong zone, and the weak zone were regarded as serum antibody titer-positive patients.

Molecule | effect of cytochalasin B on reaction ([1]; 10 μM of cytochalasin B) | antigen presentation by MHC class I ([1]; dendritic cells pulsed with 1 μM peptide) | intake into antigen-presenting cells (U937) | effect of low temperature on reaction ([2]; low temperature (4° C.) blocks intake) | antigen presentation by MHC class II ([2]; self-EBV-B cells as antigen-presenting cells, 4° C. or 37° C.) | reaction on stimulation with self-dendritic cells pulsed with antigen [3] | reaction on stimulation with self-dendritic cells pulsed with antigen [4] | antibody reaction to XAGE-1b ([5]; 50 cases of normal healthy subjects) | XAGE-1b serum antibody titer-positive cases ([5]; Non-small-cell lung cancer (n = 200)) | XAGE-1b serum antibody titer-positive cases ([5]; Stage 3B/4 lung adenocarcinoma (n = 69))
NY-ESO-1 f peptide: long-chain peptide made up of 20 amino acids of NY-ESO-1 (YLAMPFATPMEAELARRSLA) | decrease in a reaction to CD8-positive T cells | presented as an antigen by MHC class I | taken into the cells | decrease in a reaction to CD4-positive T cells | presented as an antigen by MHC class II | – | – | – | – | –
XAGE-1b protein: XAGE-1b protein (81 amino acids, SEQ ID. No. 1) synthesized by GL Biochem; cancer/testis antigen (protein, listed as Homo sapiens) MESPKKKNQQLKVGILHLGSRQKKIRIQLRSQCATWKVICKSCISQTPGINLDLGSGVKVKIIPKEEHCKMPEAGEEQPQV | – | – | – | – | – | production of antigen-specific IFN-γ | production of antigen-specific IFN-γ | no antibody reaction to XAGE-1b was observed | 20 (10.0%) n (%) | 13 (18.8%) n (%)

— patent US20120064102A1, “PEPTIDE INDUCING XAGE-1B-SPECIFIC IMMUNE REACTION AND UTILIZATION OF SAME” (NATIONAL UNIVERSITY CORPORATION OKAYAMA UNIVERSITY, priority 2009, published 2012)
